Measurements from patent publication US20060052751A1, “Fast perfusion cell chamber” (priority 2004, published 2006).

Tested on: GABA transporter isoform GAT4
Experiment: GABA concentration jump, two-electrode voltage clamp in Xenopus laevis oocyte in fast perfusion chamber
Format: cell-based
Settings: oocyte expressing GAT4, N=6
From the text: The usefulness of the Xenopus oocyte expression system for a variety of electrogenic membrane proteins has driven us to invent a novel rapid perfusion method which allows fast (≦20 ms) solution changes around intact, voltage-clamped Xenopus laevis oocytes (FIGS. 1-4). The present invention permits rapid solution changes to be made about voltage-clamped Xenopus laevis oocytes, while preserving the integrity of the cellular membrane. Defolliculated oocytes (intact vitelline membrane) and conventional two-electrode voltage clamp are used. For fast perfusion, the oocyte is placed in-line with the flow of buffer. The oocyte is supported primarily by an oocyte support base (6) equipped with oocyte support prongs (12), which prevent cellular movement. The current and voltage electrodes (4, 5) (for electrophysiological measurements) provide some support. Buffer flows from above the oocyte in a vertical direction (driven by gravity), at adjustable rates ranging from 1-50 ml/min. Healthy oocytes withstand maximal flow rates due to the chamber's support mechanisms.
In the absence of oocyte in the chamber, the fluid exchange rate at the recording electrodes is ≈3 ms at maximal buffer flow rates (FIG. 5), the fastest solution change rate ever reported for Xenopus laevis oocytes. The exchange rate with oocyte in place is more difficult to determine due to the highly invaginated surface of the cell (i.e., microvilli), but is estimated to be no more than ≈20 ms. The geometry of the oocyte, microvilli in the oocyte plasma membrane, as well as the oocyte vitelline membrane most likely contribute to this slowing effect. […] A number of features of the system have been examined with oocytes expressing the human γ-aminobutyric acid transporter protein and compared with results obtained from traditional methods (FIGS. 6 and 7). This system permits examination of ligand interaction with electrogenic membrane proteins, a proposition which has heretofore been unattainable. The system also allows for rapid determination of kinetic parameters for drugs of interest.
FIGS. 6A and 6B show a representative γ-aminobutyric acid (GABA) concentration jump in an oocyte expressing the GABA transporter isoform GAT4. The membrane potential (Vm) was held at −50 mV and the GABA concentration was 0.5 mM. […] This rapid transient induced by a concentration jump represents the fastest ever reported with the two-electrode voltage clamp for any membrane protein expressed in the Xenopus laevis oocyte expression system. […] The steady-state current represents steady-state Na^+/Cl^−/GABA cotransport into the cell. Only the steady-state current is observed in conventional two-electrode voltage clamp records (not shown). The rapid transient represents fast GABA-evoked electrogenic transitions. […] Referring to FIG. 6B, if GABA and Na^+ are simultaneously introduced, the rapid transient phase is absent and the evoked current follows a monoexponential behavior (τ=602±98 ms; N=6). […] Because these events are very fast events, these measurements would not have been possible without the present invention. Thus, our perfusion chamber allows the acquisition of novel information from electrogenic membrane transport proteins expressed in oocytes.

## NCCCC(=O)O [GABA, γ-aminobutyric acid]
GABA and Na+ simultaneously introduced, rapid transient phase absent
  time constant (τ) of monoexponential evoked current: 602 ± 98 ms
Vm -50 mV, GABA 0.5 mM
  time constant of decay of rapid transient phase of GABA-evoked current: 15 ± 2 ms
  time constant of mono-exponential decay of GABA-evoked current back to baseline upon rapid removal of GABA: 4.0 ± 0.6 s
  time constant of mono-exponential decay of slow transient phase to steady-state: 1.3 ± 0.1 s
  time-to-peak of rapid transient phase of GABA-evoked inward current: 20 ± 5 ms
